Source: patent publication US8143282B2, “Heterocyclic compounds” (S*BIO Pte Ltd., priority 2005, dated 2012)

Assays:
[1] = molecular target: T1, HDAC1 enzyme (Homo sapiens, UniProt Q13547); experiment: In vitro HDAC assay for determination of IC50 values (BIOMOL fluorescent-based HDAC activity assay); format: biochemical
T1 construct: Amplification of human HDAC1 coding region from this cDNA library was cloned separately into the baculovirus expression pDEST20 vector; made in house; host or cells: SF9 insect cells, pDEST20-HDAC1 baculovirus
Experimental: Human cDNA library was prepared using cultured SW620 cells. Amplification of human HDAC1 coding region from this cDNA library was cloned separately into the baculovirus expression pDEST20 vector (GATEWAY Cloning Technology, Invitrogen Pte Ltd). The pDEST20-HDAC1 construct was confirmed by DNA sequencing. Recombinant baculovirus was prepared using the Bac-To-Bac method following the manufacturer's instruction (Invitrogen Pte Ltd).
Expression of GST-HDAC1 was done by infecting SF9 cells (Invitrogen Pte Ltd) with pDEST20-HDAC1 baculovirus at MOI=1 for 48 h. Soluble cell lysate was incubated with pre-equilibrated Glutathione Sepharose 4B beads (Amersham) at 4° C. for 2 h. The beads were washed with PBS buffer for 3 times. The GST-HDAC1 protein was eluted by elution buffer containing 50 mM Tris, pH8.0, 150 mM NaCl, 1% Triton X-100 and 10 mM or 20 mM reduced Glutathione. The purified GST-HDAC1 protein was dialyzed with HDAC storage buffer containing 10 mM Tris, pH7.5, 100 mM NaCl and 3 mM MgCl2. 20% Glycerol was added to purified GST-HDAC1 protein before storage at −80° C.
The assay has been carried out in 96 well format and the BIOMOL fluorescent-based HDAC activity assay has been applied. […] Flur de lys Developer was added and the reaction was incubated for 10 min. Briefly, deacetylation of the substrate sensitizes it to the developer, which then generates a fluorophore. The fluorophore is excited with 360 nm light and the emitted light (460 nm) is detected on a fluorometric plate reader (Tecan Ultra Microplate detection system, Tecan Group Ltd.).
The analytical software, Prism 4.0 (GraphPad Software Inc) has been used to generate IC50 from a series of data.

[2] = tested on: Colo205 cells; experiment: Cell-based proliferation assay for GI50 (CyQUANT), Colo205; details: Homo sapiens, COLO 205, 96 h treatment, read-out: Cellular or Growth Inhibition Activity in Colo205 cells, GI50
Experimental: Human colon cancer cell lines (Colo205, HCT116), Ovarian cancer cell line (A2780), Hepatoma cell line (HEP3B), Prostate cancer cell line (PC3) were obtained from ATCC or ECACC. Colo205 cells were cultivated in RPMI 1640 containing 2 mM L-Glutamine, 5% FBS, 1.0 mM Na Pyruvate, 1 U/ml of penicillin and 1 μg of streptomycin. HCT116 cells were cultivated in McCoy's containing RPMI 1640 containing 2 mM L-Glutamine, 5% FBS, 1 U/ml of penicillin and 1 μg of streptomycin. A2780 cells were cultivated in RPMI 1640 containing 2 mM L-Glutamine, 5% FBS, 1 U/ml of penicillin and 1 μg of streptomycin. HEP3B cells were cultivated in EMEM containing 2 mM L-glutamine, 5% FBS, 1% non essential amino acid, 1 mM Na Pyruvate, 1 U/ml of penicillin and 1 μg of streptomycin. PC3 cells were cultivated in F12K, 2 mM L-glutamine, 5% FBS, 1 U/ml of penicillin and 1 μg of streptomycin. PC3, Colo205, and HCT116 cells were seeded in 96-wells plate at 1000, 5000 and 6000 cells per well respectively. A2780 and HEP3B cells were seeded in 96-wells plate at 4000 cells per well respectively. The plates were incubated at 37° C., 5% CO2, for 24 h. Cells were treated with compounds at various concentrations for 96 h. Cell growth was then monitored using CyQUANT® cell proliferation assay (Invitrogen Pte Ltd). Dose response curves were plotted to determine GI50 values for the compounds using XL-fit (ID Business Solution, Emeryville, Calif.). GI50 is defined as the concentration of compound required for 50% inhibition of cell growth.

T1 sequence (Q13547 whole entry): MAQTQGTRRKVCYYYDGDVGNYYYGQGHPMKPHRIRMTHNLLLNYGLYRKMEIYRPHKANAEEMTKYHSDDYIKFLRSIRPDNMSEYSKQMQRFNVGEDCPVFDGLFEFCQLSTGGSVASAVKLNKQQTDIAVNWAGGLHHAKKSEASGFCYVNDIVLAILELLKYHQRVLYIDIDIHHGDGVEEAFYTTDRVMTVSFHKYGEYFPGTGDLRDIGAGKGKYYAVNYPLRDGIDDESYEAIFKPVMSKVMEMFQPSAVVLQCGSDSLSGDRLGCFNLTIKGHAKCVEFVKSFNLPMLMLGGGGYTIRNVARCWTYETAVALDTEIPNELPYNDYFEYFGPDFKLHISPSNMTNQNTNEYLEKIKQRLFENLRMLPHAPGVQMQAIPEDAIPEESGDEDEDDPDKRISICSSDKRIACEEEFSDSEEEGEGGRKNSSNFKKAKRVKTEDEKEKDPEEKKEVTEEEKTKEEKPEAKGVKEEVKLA

| SMILES | IC50 [1] [nM] | GI50 [2] [nM] |
| --- | --- | --- |
| CCCCc1nc2cc(/C=C/C(=O)NO)ccc2n1CCN(C)CC [Compound 85, 3-{2-Butyl-1-[2-(ethyl-methyl-amino)-ethyl]-1H-benzoimidazol-5-yl}-N-hydroxy-acrylamide] | 110 | 1520 |
| CCCCCc1nc2cc(/C=C/C(=O)NO)ccc2n1C1CCCN(C)C1 (stereo not drawn) [Compound 86, N-Hydroxy-3-[1-(1-methyl-piperidin-3-yl)-2-pentyl-1H-benzoimidazol-5-yl]-acrylamide] | 160 | 2080 |
| CCCCCCN(CC)CCn1cnc2cc(/C=C/C(=O)NO)ccc21 [Compound 87, 3-{1-[2-(Ethyl-hexyl-amino)-ethyl]-1H-benzoimidazol-5-yl}-N-hydroxy-acrylamide] | 100 | 1070 |
| CCCCCCCN(CC)CCn1cnc2cc(/C=C/C(=O)NO)ccc21 [Compound 89, 3-{1-[2-(Ethyl-heptyl-amino)-ethyl]-1H-benzoimidazol-5-yl}-N-hydroxy-acrylamide] | 80 | 870 |
| CCCCCCc1nc2cc(/C=C/C(=O)NO)ccc2n1C1CCCN(CCO)C1 (stereo not drawn) [Compound 90, 3-{2-Hexyl-1-[1-(2-hydroxy-ethyl)-piperidin-3-yl]-1H-benzoimidazol-5-yl}-N-hydroxy-acrylamide] | 510 | 8100 |
| CCCCc1nc2cc(/C=C/C(=O)NO)ccc2n1CCN(CC)CCCO [Compound 91, 3-(2-Butyl-1-{2-[ethyl-(3-hydroxy-propyl)-amino]-ethyl}-1H-benzoimidazol-5-yl)-N-hydroxy-acrylamide] | 60 | 2400 |
| CCCCCc1nc2cc(/C=C/C(=O)NO)ccc2n1CCN(CC)CCCO [Compound 92, 3-(1-{2-[Ethyl-(3-hydroxy-propyl)-amino]-ethyl}-2-pentyl-1H-benzoimidazol-5-yl)-N-hydroxy-acrylamide] | 50 | 1820 |
| O=C(/C=C/c1ccc2c(c1)ncn2C1CCN(CCc2ccccc2)C1)NO (stereo not drawn) [Compound 93, (E)-N-hydroxy-3-(1-(1-phenethylpyrrolidin-3-yl)-1H-benzo[d]imidazol-5-yl)acrylamide] | 230 | 2140 |
| CCCCCN1CCCC(n2cnc3cc(/C=C/C(=O)NO)ccc32)C1 (stereo not drawn) [Compound 94, (E)-N-hydroxy-3-(1-(1-pentylpiperidin-3-yl)-1H-benzo[d]imidazol-5-yl)acrylamide] | 64 | 600 |
| CCCCN(CC)CCn1cnc2cc(/C=C/C(=O)NO)ccc21 [Compound 95, 3-{1-[2-(Butyl-ethyl-amino)-ethyl]-1H-benzoimidazol-5-yl}-N-hydroxy-acrylamide] | 52 | 570 |
| O=C(/C=C/c1ccc2c(c1)ncn2C1CCCN(CCc2ccccc2)C1)NO (stereo not drawn) [Compound 96, (E)-N-hydroxy-3-(1-(1-phenethylpiperidin-3-yl)-1H-benzo[d]imidazol-5-yl)acrylamide] | 80 | 700 |
| O=C(/C=C/c1ccc2c(c1)ncn2C1CCCN(CCCc2ccccc2)C1)NO (stereo not drawn) [Compound 97, (E)-N-hydroxy-3-(1-(1-(3-phenylpropyl)piperidin-3-yl)-1H-benzo[d]imidazol-5-yl)acrylamide] | 100 | 670 |
| CC(C)(C)CCN1CCC(n2cnc3cc(/C=C/C(=O)NO)ccc32)C1 (stereo not drawn) [Compound 99, 3-{1-[1-(3,3-Dimethyl-butyl)-pyrrolidin-3-yl]-1H-benzoimidazol-5-yl}-N-hydroxy-acrylamide] | 120 | 1890 |
| CCN(CC)CCn1cnc2cc(/C=C/C(=O)NO)ccc21 [Compound 100, (E)-3-(1-(2-(diethylamino)ethyl)-1H-benzo[d]imidazol-5-yl)-N-hydroxyacrylamide] | 190 | 2250 |
| CCN(CC)CCn1c(CCCCC#N)nc2cc(/C=C/C(=O)NO)ccc21 [Compound 101, 3-[2-(4-Cyano-butyl)-1-(2-diethylamino-ethyl)-1H-benzoimidazol-5-yl]-N-hydroxy-acrylamide] | 80 | 2440 |
| CCCCN1CCCC(n2cnc3cc(/C=C/C(=O)NO)ccc32)C1 (stereo not drawn) [Compound 102, (E)-3-(1-(1-butylpiperidin-3-yl)-1H-benzo[d]imidazol-5-yl)-N-hydroxyacrylamide] | 540 | 2080 |

Next, values leading:

| IC50 [1] [nM] | GI50 [2] [nM] | SMILES |
| --- | --- | --- |
| 100 | 480 | C=CCCCN1CCCC(n2cnc3cc(/C=C/C(=O)NO)ccc32)C1 (stereo not drawn) [Compound 103, (E)-N-hydroxy-3-(1-(1-(pent-4-enyl)piperidin-3-yl)-1H-benzo[d]imidazol-5-yl)acrylamide] |
| 410 | 1990 | CC(C)(C)CCN1CCC(n2cnc3cc(/C=C/C(=O)NO)ccc32)CC1 [Compound 104, (E)-3-(1-(1-(3,3-dimethylbutyl)piperidin-4-yl)-1H-benzo[d]imidazol-5-yl)-N-hydroxyacrylamide] |
| 130 | 1770 | CCCNc1nc2cc(/C=C/C(=O)NO)ccc2n1CCN(CC)CC [Compound 105, 3-[1-(2-Diethylamino-ethyl)-2-propylamino-1H-benzoimidazol-5-yl]-N-hydroxy-acrylamide] |
| 74 | 630 | CCCN(CCn1cnc2cc(/C=C/C(=O)NO)ccc21)C(C)C [Compound 107, (E)-N-hydroxy-3-(1-(2-(isopropyl(propyl)amino)ethyl)-1H-benzo[d]imidazol-5-yl)acrylamide] |
| 48 | 490 | CCCCCN(CCn1cnc2cc(/C=C/C(=O)NO)ccc21)C(C)C [Compound 109, N-Hydroxy-3-{1-[2-(isopropyl-pentyl-amino)-ethyl]-1H-benzoimidazol-5-yl}-acrylamide] |
| 44 | 1740 | CCN(CC)CCn1c(CCCCCC#N)nc2cc(/C=C/C(=O)NO)ccc21 [Compound 110, 3-[2-(5-Cyano-pentyl)-1-(2-diethylamino-ethyl)-1H-benzoimidazol-5-yl]-N-hydroxy-acrylamide] |
| 120 | 880 | CCCN(CC)CCn1cnc2cc(/C=C/C(=O)NO)ccc21 [Compound 112, 3-{1-[2-(Ethyl-propyl-amino)-ethyl]-1H-benzoimidazol-5-yl}-N-hydroxy-acrylamide] |
| 16 | 610 | CCCC(C)CN(CCn1cnc2cc(/C=C/C(=O)NO)ccc21)C(C)C (stereo not drawn) [Compound 113, N-Hydroxy-3-(1-{2-[isopropyl-(2-methyl-pentyl)-amino]-ethyl}-1H-benzoimidazol-5-yl)-acrylamide] |
| 63 | 720 | CC(C)N(CCCC(F)(F)F)CCn1cnc2cc(/C=C/C(=O)NO)ccc21 [Compound 114, (E)-N-hydroxy-3-(1-(2-(isopropyl(4,4,4-trifluorobutyl)amino)ethyl)-1H-benzo[d]imidazol-5-yl)acrylamide] |
| 100 | 700 | CCCCCCN(CC)CCn1c(C)nc2cc(/C=C/C(=O)NO)ccc21 [Compound 116, 3-{1-[2-(Ethyl-hexyl-amino)-ethyl]-2-methyl-1H-benzoimidazol-5-yl}-N-hydroxy-acrylamide] |
| 190 | 1800 | CCCCN(CC)CCn1c(C(F)(F)F)nc2cc(/C=C/C(=O)NO)ccc21 [Compound 117, 3-{1-[2-(Butyl-ethyl-amino)-ethyl]-2-trifluoromethyl-1H-benzoimidazol-5-yl}-N-hydroxy-acrylamide] |
